Earlier results as cited in patent US7776886B2, “Cyclopropyl piperidine glycine transporter inhibitors” (Merck Sharp & Dohme Corp., priority 2004, dated 2010).

How the values were obtained:
[1] = test system: NMDA receptor; conditions: rat
[2] = mice
[3] = schizophrenia patients poorly responsive to antipsychotic drugs

Structure (SMILES) | NMDA receptor activity [1] | NMDA receptor-dependent long-term potentiation [1] | pre-pulse inhibition (measure of sensory gating) [2] | effect on positive, negative and cognitive symptoms [3]
CN(CCC(Oc1ccc(-c2ccccc2)cc1)c1ccc(F)cc1)CC(=O)O (stereo not shown) [NFPS, (N-[3-(4′-fluorophenyl)-3-(4′-phenylphenoxy)propyl])sarcosine] | potentiates | potentiates | enhance pre-pulse inhibition | –
CNCC(=O)O [sarcosine] | – | – | – | beneficial effect
